In patent US20250382344A1, “Soluble GLP1/GIP/NPY2 Receptor Triple Agonists” (Boehringer Ingelheim International GmH, priority 2024, published 2025):

Key:
[1] = Solubility in 0.1 M phosphate buffer at pH 7; format: physicochemical; settings: 0.1 M phosphate buffer at pH 7, 10 mg/mL final peptide concentration, shaking 2 hours at room temperature, peptides as TFA-salts, measured sample pH 6.5-7.0; for solubility: read-out: Solubility
Protocol: Peptides (as TFA-salts) were weighed out in a filter unit (Mini-UniPrep Syringeless Filter 0.45 μm, Whatman PVDF), and 0.1 M phosphate buffer at pH 7 was added to achieve 10 mg/mL final peptide concentration. The peptides were dissolved by shaking the filter units horizontally at 600 rpm for 2 hours at room temperature. Samples were then filtered to remove any insoluble particles. Controls were prepared by weighing out the corresponding peptide solid material and dissolving it in an appropriate vehicle (e.g. ACN:H2O) to a final concentration of 1 mg/mL. Both, the control and sample were analyzed by reversed phase chromatography. The area under the peak of the sample was compared to the control and the solubility was calculated based on that ratio. The pH was measured and recorded for each sample.

hGIPR = target: T1, hGIPR (Homo sapiens, UniProt P48546); experiment: hGIPR CreLuc assay in 0.5% and 100% plasma (CHO CRE-luciferase reporter cells); format: cell-based; settings: 0.5% human plasma, read-out: hGIPR 0.5% hP
T1 construct: expressed in transfected cells; host or cells: CHO CRE-luciferase reporter cells
T1 sequence (P48546 22-466): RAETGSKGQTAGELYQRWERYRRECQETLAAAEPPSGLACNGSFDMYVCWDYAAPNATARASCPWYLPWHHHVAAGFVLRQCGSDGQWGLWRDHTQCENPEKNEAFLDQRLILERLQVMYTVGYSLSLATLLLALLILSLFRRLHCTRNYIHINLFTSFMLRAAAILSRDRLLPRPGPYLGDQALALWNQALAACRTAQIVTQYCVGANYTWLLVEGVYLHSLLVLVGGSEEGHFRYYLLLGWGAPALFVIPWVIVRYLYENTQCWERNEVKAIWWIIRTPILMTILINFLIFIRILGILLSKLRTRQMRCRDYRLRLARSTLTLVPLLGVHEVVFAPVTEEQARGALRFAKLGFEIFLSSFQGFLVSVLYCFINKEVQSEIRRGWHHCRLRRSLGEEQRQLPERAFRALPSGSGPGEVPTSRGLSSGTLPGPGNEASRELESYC
From the text: CHO and HEK-293 recombinant cell lines express a luciferase reporter gene under control of the CAMP responsive element (CRE). As a second recombinant protein the GLP-1 and NPY2 receptors were expressed in the reporter gene HEK cells, and the GIP receptor was expressed in the reporter gene CHO cells, respectively. Stimulation of these recombinant cells with an agonist leads to an increase of intracellular CAMP levels. In the presence of CAMP, the transcription factor CRE binding protein (CREB) binds to the CRE and to the CREB binding protein (CBP), which leads to transcription of the luciferase reporter gene. Peptides upon serial-dilution in 100% DMSO were transferred into 384-well assay plates with 5 μl pre-dispensed assay buffer (1×HBSS, 20 mM HEPES, pH7.4 supplemented with 0.5% human plasma) using acoustic dispensing on a Labcyte ECHO. Cryo-preserved transgenic reporter gene cells were thawed in assay buffer. 20 μl (10.000 cells/well) were added to the plate with the peptides and incubated for 4 hours at 37° C. in a humidified incubator. Following incubation, assay plates are equilibrated to room temperature, followed by addition of 25 μl of Bright-Glo™ Luciferase reagent, incubation at room temperature for 10 minutes and analysis of luminescence (Envision Reader). […] EC50 values were calculated by non-linear regression using sigmoid concentration-response with variable slope.
The same assays were run in the presence of 100% plasma with no additional buffer constituents.

Row | SMILES | solubility [1] [µg/mL] | other results
1 | CC[C@H](C)[C@H](NC(=O)[C@H](CCCCN)NC(=O)[C@H](CCC(=O)O)NC(=O)[C@H](CC(C)C)NC(=O)C(C)(C)NC(=O)[C@@H](NC(=O)[C@H](CO)NC(=O)[C@H](Cc1ccc(O)cc1)NC(=O)[C@H](CC(=O)O)NC(=O)[C@H](CO)NC(=O)[C@@H](NC(=O)[C@H](Cc1ccccc1)NC(=O)[C@@H](NC(=O)CNC(=O)[C@H](CCC(=O)O)NC(=O)C(C)(C)NC(=O)[C@@H](N)Cc1ccc(O)cc1)[C@@H](C)O)[C@@H](C)O)[C@@H](C)CC)C(=O)N[C@@H](C)C(=O)N[C@@H](CCC(N)=O)C(=O)NC(C)(C)C(=O)N[C@@H](C)C(=O)N[C@@H](Cc1ccccc1)C(=O)N[C@H](C(=O)N[C@@H](CCCNC(=N)N)C(=O)N[C@@H](Cc1c[nH]cn1)C(=O)N[C@@H](CC(C)C)C(=O)N[C@H](C(=O)N[C@@H](CC(N)=O)C(=O)N[C@@H](CCCCNC(=O)[C@@H](N)CCCCNC(=O)CC[C@H](NC(=O)CC[C@H](NC(=O)CC[C@H](NC(=O)CC[C@H](NC(=O)CC[C@H](NC(=O)CC[C@H](NC(=O)CCCCCCCCCCCCCCCCC(=O)O)C(=O)O)C(=O)O)C(=O)O)C(=O)O)C(=O)O)C(=O)O)C(=O)NC(C)(C)C(=O)N[C@H](C(=O)N[C@@H](CCCNC(=N)N)C(=O)N[C@@H](CCC(N)=O)C(=O)N[C@@H](CCCNC(=N)N)C(=O)N[C@@H](Cc1ccc(O)cc1)C(N)=O)[C@@H](C)O)[C@@H](C)CC)C(C)C [Compound 24, Y-Aib-E-G-T-F-T-S-D-Y-S-I-Aib-L-E-K-I-A-Q-Aib-A-F-V-R-H-L-I-N-K(1,3)-Aib-T-R-Q-R-Y-NH2.C18DA-gGlu-gGlu-gGlu-gGlu-gGlu-gGlu-eLys(1,2)] | 8100 | –
2 | CC[C@H](C)[C@H](NC(=O)[C@H](CC(C)C)NC(=O)[C@H](Cc1c[nH]cn1)NC(=O)[C@H](CCCNC(=N)N)NC(=O)[C@@H](NC(=O)[C@H](Cc1ccccc1)NC(=O)[C@H](C)NC(=O)C(C)(C)NC(=O)[C@H](CCC(N)=O)NC(=O)[C@H](C)NC(=O)[C@H](CCC(=O)O)NC(=O)[C@H](CCCCN)NC(=O)[C@H](CCC(=O)O)NC(=O)[C@H](CC(C)C)NC(=O)C(C)(C)NC(=O)[C@@H](NC(=O)[C@H](CO)NC(=O)[C@H](Cc1ccc(O)cc1)NC(=O)[C@H](CC(=O)O)NC(=O)[C@H](CO)NC(=O)[C@@H](NC(=O)[C@H](Cc1ccccc1)NC(=O)[C@@H](NC(=O)CNC(=O)[C@H](CCC(=O)O)NC(=O)C(C)(C)NC(=O)[C@@H](N)Cc1ccc(O)cc1)[C@@H](C)O)[C@@H](C)O)[C@@H](C)CC)C(C)C)C(=O)N[C@@H](CC(N)=O)C(=O)N[C@@H](CCCCNC(=O)[C@@H](N)CCCCNC(=O)[C@H](CCC(=O)O)NC(=O)CC[C@H](NC(=O)CC[C@H](NC(=O)CC[C@H](NC(=O)CC[C@H](NC(=O)CC[C@H](NC(=O)CCCCCCCCCCCCCCCCCCC(=O)O)C(=O)O)C(=O)O)C(=O)O)C(=O)O)C(=O)O)C(=O)NC(C)(C)C(=O)N[C@H](C(=O)N[C@@H](CCCNC(=N)N)C(=O)N[C@@H](CCC(N)=O)C(=O)N[C@@H](CCCNC(=N)N)C(=O)N[C@@H](Cc1ccc(O)cc1)C(N)=O)[C@@H](C)O [Compound 28, Y-Aib-E-G-T-F-T-S-D-Y-S-I-Aib-L-E-K-E-A-Q-Aib-A-F-V-R-H-L-I-N-K(1,3)-Aib-T-R-Q-R-Y-NH2.C20DA-gGlu-gGlu-gGlu-gGlu-gGlu-gGlu-eLys(1,2)] | 10000 | –
3 | CC[C@H](C)[C@H](NC(=O)[C@H](CC(C)C)NC(=O)[C@H](Cc1c[nH]cn1)NC(=O)[C@H](CCCNC(=N)N)NC(=O)[C@@H](NC(=O)[C@H](Cc1ccccc1)NC(=O)[C@H](C)NC(=O)C(C)(C)NC(=O)[C@H](CCC(N)=O)NC(=O)[C@H](CCC(=O)O)NC(=O)[C@H](CCC(N)=O)NC(=O)[C@H](CCCCN)NC(=O)[C@H](CCC(=O)O)NC(=O)[C@H](CC(C)C)NC(=O)C(C)(C)NC(=O)[C@@H](NC(=O)[C@H](CO)NC(=O)[C@H](Cc1ccc(O)cc1)NC(=O)[C@H](CC(=O)O)NC(=O)[C@H](CO)NC(=O)[C@@H](NC(=O)[C@H](Cc1ccccc1)NC(=O)[C@@H](NC(=O)CNC(=O)[C@H](CCC(=O)O)NC(=O)C(C)(C)NC(=O)[C@@H](N)Cc1ccc(O)cc1)[C@@H](C)O)[C@@H](C)O)[C@@H](C)CC)C(C)C)C(=O)N[C@@H](CC(N)=O)C(=O)N[C@@H](CCCCNC(=O)[C@@H](N)CCCCNC(=O)CC[C@H](NC(=O)CC[C@H](NC(=O)CC[C@H](NC(=O)CC[C@H](NC(=O)CC[C@H](NC(=O)CC[C@H](NC(=O)CCCCCCCCCCCCCCCCC(=O)O)C(=O)O)C(=O)O)C(=O)O)C(=O)O)C(=O)O)C(=O)O)C(=O)NC(C)(C)C(=O)N[C@H](C(=O)N[C@@H](CCCNC(=N)N)C(=O)N[C@@H](CCC(N)=O)C(=O)N[C@@H](CCCNC(=N)N)C(=O)N[C@@H](Cc1ccc(O)cc1)C(N)=O)[C@@H](C)O [Compound 36, Y-Aib-E-G-T-F-T-S-D-Y-S-I-Aib-L-E-K-Q-E-Q-Aib-A-F-V-R-H-L-I-N-K(1,3)-Aib-T-R-Q-R-Y-NH2.C18DA-gGlu-gGlu-gGlu-gGlu-gGlu-gGlu-eLys(1,2)] | – | solubility at 2 h [1]: 5000 µg/mL
4 | CC[C@H](C)[C@H](NC(=O)[C@H](CO)NC(=O)[C@H](Cc1ccc(O)cc1)NC(=O)[C@H](CC(=O)O)NC(=O)[C@H](CO)NC(=O)[C@@H](NC(=O)[C@H](Cc1ccccc1)NC(=O)[C@@H](NC(=O)CNC(=O)[C@H](CCC(=O)O)NC(=O)C(C)(C)NC(=O)[C@@H](N)Cc1ccc(O)cc1)[C@@H](C)O)[C@@H](C)O)C(=O)NC(C)(C)C(=O)N[C@@H](CC(C)C)C(=O)N[C@@H](CCC(=O)O)C(=O)N[C@@H](CCCCN)C(=O)N[C@@H](CCC(N)=O)C(=O)N[C@@H](C)C(=O)N[C@@H](CCC(N)=O)C(=O)NC(C)(C)C(=O)N[C@@H](C)C(=O)N[C@@H](Cc1ccccc1)C(=O)N[C@H](C(=O)N[C@@H](CCCNC(=N)N)C(=O)N[C@@H](Cc1c[nH]cn1)C(=O)N[C@@H](CC(C)C)C(=O)N[C@@H](CC(C)C)C(=O)N[C@@H](CC(N)=O)C(=O)N[C@@H](CCCCNC(=O)[C@@H](N)CCCCNC(=O)CC[C@H](NC(=O)CC[C@H](NC(=O)CC[C@H](NC(=O)CC[C@H](NC(=O)CC[C@H](NC(=O)CC[C@H](NC(=O)CCCCCCCCCCCCCCCCCCC(=O)O)C(=O)O)C(=O)O)C(=O)O)C(=O)O)C(=O)O)C(=O)O)C(=O)NC(C)(C)C(=O)N[C@H](C(=O)N[C@@H](CCCNC(=N)N)C(=O)N[C@@H](CCC(N)=O)C(=O)N[C@@H](CCCNC(=N)N)C(=O)N[C@@H](Cc1ccc(O)cc1)C(N)=O)[C@@H](C)O)C(C)C [Compound 80, Y-Aib-E-G-T-F-T-S-D-Y-S-I-Aib-L-E-K-Q-A-Q-Aib-A-F-V-R-H-L-L-N-K(1,3)-Aib-T-R-Q-R-Y-NH2.C20DA-gGlu-gGlu-gGlu-gGlu-gGlu-gGlu-eLys(1,2)] | – | EC50 (hGIPR): 1.7 nM
